Source: patent US9533994B2, “Monoclinic crystalline form of asenapine maleate with a specific particle size distribution” (Laboratorios Lesvi S.L., priority 2011, dated 2017)
Where a name gives a salt, the structure may show the parent alone.

Experiments:
[1] = Particle Size Distribution (PSD) by Laser Diffraction Spectrometry (Malvern Mastersizer 2000); format: physicochemical; conditions: sample in heptane with 0.2% Span-20, by volume
Experimental: Laser Diffraction Spectrometry (LDS) was used to determine the Particle Size Distribution (PSD). The samples were prepared by mixing 100 mg of asenapine maleate with 5 mL of heptane that contains 0.2% of Span-20. Ultrasonic treatment of the samples was performed for 5 minutes and the PSD was analysed using a particle size analyzer Malvern Mastersizer 2000. Refractive index of asenapine 1.800 and absorption 0.01.

[2] = Outcome of micronisation of asenapine maleate crystals; format: physicochemical; conditions: micronised crystals, prepared as disclosed in U.S. Pat. No. 4,145,434
Experimental: As described in Funke et al., Arzneim.-Forsch./Drug Res., 40:536-539 (1990), asenapine maleate (Form H) was the first known polymorphic form. Form H is a monoclinic crystalline form having a melting point in the range of 141° C. to 145° C. EP 1 710 245 B1 and EP 1 917 267 B1 described the discovery of a new form of asenapine maleate (Form L), which is an orthorhombic crystalline form having a melting point in the range of 138° C. to 142° C. EP 1 710 245 131 and EP 1 917 267 B1 mention the importance of asenapine particle size since asenapine commercial sublingual tablets are dissolved in the mouth. Thus, particles having a size distribution characterized by a d95 (95% volume of the particles are smaller than or equal to the indicated size) of about 100 μm or less, more preferably about 50 μm or less, and even more preferably about 30 μm or less, is desirable for sublingual formulations. According to EP 1 710 245 B1 and EP 1 917 267 B1, the outcome of the micronisation process used therein, and which is necessary to reduce the particle size of crystals, appeared to be unpredictable when crystals of monoclinic form of asenapine maleate were subjected to the micronisation process. […]

[3] = micronised, per EP 1 710 245 B1 and EP 1 917 267 B1; cited from earlier work

SMILES | PSD d90 [1] [μm] | PSD d95 [1] [μm] | polymorphic stability after micronisation [2] | d95 after micronisation [3] [μm]
CN1C[C@@H]2c3ccccc3Oc3ccc(Cl)cc3[C@H]2C1 (racemic) [Example 9, asenapine maleate] | 23 | 28 | – | –
CN1C[C@@H]2c3ccccc3Oc3ccc(Cl)cc3[C@H]2C1 (racemic) [Example 8, asenapine maleate] | 54 | 68 | – | –
CN1C[C@@H]2c3ccccc3Oc3ccc(Cl)cc3[C@H]2C1 (racemic) [monoclinic form of asenapine maleate, asenapine maleate] | – | – | not stable and eventually evolved to the orthorhombic crystalline form | –
CN1C[C@@H]2c3ccccc3Oc3ccc(Cl)cc3[C@H]2C1 (racemic) [Example 11, asenapine maleate] | 17 | 21 | – | –
CN1C[C@@H]2c3ccccc3Oc3ccc(Cl)cc3[C@H]2C1 (racemic) [Example 6, asenapine maleate] | 46 | 56 | – | –
CN1C[C@@H]2c3ccccc3Oc3ccc(Cl)cc3[C@H]2C1 (racemic) [Example 4, asenapine maleate] | 21 | 28 | – | –
CN1C[C@@H]2c3ccccc3Oc3ccc(Cl)cc3[C@H]2C1 (racemic) [asenapine maleate] | – | – | – | ≤ 30

Second part, led by results:

PSD d90 [1] [μm] | PSD d95 [1] [μm] | SMILES | polymorphic stability after micronisation [2] | d95 after micronisation [3] [μm]
36 | 48 | CN1C[C@@H]2c3ccccc3Oc3ccc(Cl)cc3[C@H]2C1 (racemic) [Example 7, asenapine maleate] | – | –
15 | 20 | CN1C[C@@H]2c3ccccc3Oc3ccc(Cl)cc3[C@H]2C1 (racemic) [Example 2, asenapine maleate] | – | –
31 | 38 | CN1C[C@@H]2c3ccccc3Oc3ccc(Cl)cc3[C@H]2C1 (racemic) [Example 13, asenapine maleate] | – | –
53 | 120 | CN1C[C@@H]2c3ccccc3Oc3ccc(Cl)cc3[C@H]2C1 (racemic) [Example 12, asenapine maleate] | – | –
29 | 35 | CN1C[C@@H]2c3ccccc3Oc3ccc(Cl)cc3[C@H]2C1 (racemic) [Example 5, asenapine maleate] | – | –
16 | 24 | CN1C[C@@H]2c3ccccc3Oc3ccc(Cl)cc3[C@H]2C1 (racemic) [Example 1, asenapine maleate] | – | –
31 | 37 | CN1C[C@@H]2c3ccccc3Oc3ccc(Cl)cc3[C@H]2C1 (racemic) [Example 3, asenapine maleate] | – | –
37 | 49 | CN1C[C@@H]2c3ccccc3Oc3ccc(Cl)cc3[C@H]2C1 (racemic) [Example 10, asenapine maleate] | – | –
